# Experiments:
# [1] = system: spontaneously hypertensive rats; assay: Acute antihypertensive effects in conscious spontaneously hypertensive rats; format: in vivo; conditions: po mg/kg: compound 1 3, pinacidil 3, nifedipine 10, bisoprolol 60, captopril 40, means ± SD, 9-13 rats
# Source text: Biological activity experiment 2. The acute antihypertensive effects of compound 1 in conscious spontaneously hypertensive rats.
# The methods of biological activity experiment 2 were described by Long Chao-Liang et al: Long Chao-Liang, Wang Hai, Xiao Wen-Bin. Effects of pinacidil on, hypertensive vascular remodeling. Chin J Pharmacol Toxicol 1997; 11(1):42-46.
# [2] = system: rats anesthetized with pentobarbital sodium; assay: Antagonism of glibenclamide on the cardiovascular effects in anesthetized rats; format: in vivo, Wistar rats; conditions: for +dp/dtmax / DBP / HR / LVSP / MBP / SB / Vpm / −dp/dtmax: iv mg/kg: pinacidil 1.0, nifedipine 1.0, compound 1 0.5, means ± SE
# Method: The methods of biological activity experiment 1 were as follows: Male Wistar rats, weighing 280±30 g were purchased from the experimental animal center of Academy of Military Medical Sciences. Rats were anesthetized with pentobarbital sodium (45 mg/kg) by peritoneal injection. A PE50 polyethylene catheter was inserted into the left ventricle through right carotid artery for cardiac function measurement with a pressure energe exchanger, wherein the signal is put into a SMUP-PC biosignal processing system. Cardiac functional parameters such as HR, LVSP, +dp/dtmax, −dp/dtmax and Vpm were recorded. Another two PE50 polyethylene catheters were inserted into the right femoral artery and vein respectively for blood pressure measurement wherein the artery cathether was linked to a four-channel physiology recorder (RM-6000) through a MPU-0.5A Type pressure energe exchanger, which recorded SBP, DBP and MBP, while the vein catheter was used for compound administration. The methods were described by Liu Wei et al: Liu Wei, Wang Hai, Xiao Wen-Bin.
# The methods of Biological activity experiment 3 were the same as those described in the biological activity experiment 1.
# [3] = molecular target: T1, ATP-sensitive potassium channels in vascular smooth muscles (Rattus norvegicus, UniProt Q63563); assay: Association and dissociation kinetics of [^3H]glibenclamide binding in aortic rings; parameters: species or system Wistar rat; conditions: drug M: compound 1 10^−4, pinacidil 10^−4, ATP 10^−2, ADP 10^−3, UDP 5 × 10^−3, Ade 10^−3
# T1 construct: The aorta was cut into about 3-5 mm arterial rings and the vascular endothelium was scraped off; from tissue; host or cells: endothelium-removed aortic rings of male Wistar rats
# T1 sequence (Q63563 1-1545 isoform Q63563-2): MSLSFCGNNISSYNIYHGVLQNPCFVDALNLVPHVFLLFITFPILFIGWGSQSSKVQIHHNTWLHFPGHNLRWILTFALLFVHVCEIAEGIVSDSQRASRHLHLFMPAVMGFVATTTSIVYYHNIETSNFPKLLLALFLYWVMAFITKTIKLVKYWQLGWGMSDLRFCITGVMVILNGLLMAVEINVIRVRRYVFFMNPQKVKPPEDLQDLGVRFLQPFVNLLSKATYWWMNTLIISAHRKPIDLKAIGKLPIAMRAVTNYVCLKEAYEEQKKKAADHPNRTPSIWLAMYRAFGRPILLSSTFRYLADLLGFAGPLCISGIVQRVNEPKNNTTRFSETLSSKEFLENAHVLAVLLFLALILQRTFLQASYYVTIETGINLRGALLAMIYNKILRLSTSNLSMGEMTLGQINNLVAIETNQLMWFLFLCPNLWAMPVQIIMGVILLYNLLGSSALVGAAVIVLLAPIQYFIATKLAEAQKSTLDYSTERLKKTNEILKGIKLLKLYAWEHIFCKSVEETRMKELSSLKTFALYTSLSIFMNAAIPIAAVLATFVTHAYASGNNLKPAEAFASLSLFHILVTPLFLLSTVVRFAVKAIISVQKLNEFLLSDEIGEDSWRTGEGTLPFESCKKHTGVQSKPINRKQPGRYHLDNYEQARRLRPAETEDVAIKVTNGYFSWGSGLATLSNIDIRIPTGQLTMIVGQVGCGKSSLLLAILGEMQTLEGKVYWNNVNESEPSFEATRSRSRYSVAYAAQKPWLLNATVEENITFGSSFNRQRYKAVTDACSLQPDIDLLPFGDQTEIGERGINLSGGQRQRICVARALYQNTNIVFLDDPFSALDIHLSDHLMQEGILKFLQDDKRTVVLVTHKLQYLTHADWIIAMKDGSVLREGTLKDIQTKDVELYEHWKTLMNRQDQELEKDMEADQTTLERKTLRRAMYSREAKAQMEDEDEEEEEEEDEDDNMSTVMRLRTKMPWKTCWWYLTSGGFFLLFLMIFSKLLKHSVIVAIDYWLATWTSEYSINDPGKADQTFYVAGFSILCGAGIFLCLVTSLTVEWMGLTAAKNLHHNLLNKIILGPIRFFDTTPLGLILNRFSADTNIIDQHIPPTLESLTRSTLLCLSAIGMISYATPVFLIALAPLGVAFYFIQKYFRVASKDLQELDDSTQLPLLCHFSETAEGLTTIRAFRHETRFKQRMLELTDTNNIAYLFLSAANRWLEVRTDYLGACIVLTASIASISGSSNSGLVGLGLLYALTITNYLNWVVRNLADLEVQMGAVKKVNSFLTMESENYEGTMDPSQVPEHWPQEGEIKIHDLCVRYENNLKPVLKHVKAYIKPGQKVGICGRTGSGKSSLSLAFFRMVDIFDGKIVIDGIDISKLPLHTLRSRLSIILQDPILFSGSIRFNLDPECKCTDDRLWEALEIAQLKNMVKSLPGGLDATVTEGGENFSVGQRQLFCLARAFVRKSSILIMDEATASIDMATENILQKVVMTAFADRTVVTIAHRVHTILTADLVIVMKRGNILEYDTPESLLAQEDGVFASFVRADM
# T1 sequence (Q63664 whole entry partner): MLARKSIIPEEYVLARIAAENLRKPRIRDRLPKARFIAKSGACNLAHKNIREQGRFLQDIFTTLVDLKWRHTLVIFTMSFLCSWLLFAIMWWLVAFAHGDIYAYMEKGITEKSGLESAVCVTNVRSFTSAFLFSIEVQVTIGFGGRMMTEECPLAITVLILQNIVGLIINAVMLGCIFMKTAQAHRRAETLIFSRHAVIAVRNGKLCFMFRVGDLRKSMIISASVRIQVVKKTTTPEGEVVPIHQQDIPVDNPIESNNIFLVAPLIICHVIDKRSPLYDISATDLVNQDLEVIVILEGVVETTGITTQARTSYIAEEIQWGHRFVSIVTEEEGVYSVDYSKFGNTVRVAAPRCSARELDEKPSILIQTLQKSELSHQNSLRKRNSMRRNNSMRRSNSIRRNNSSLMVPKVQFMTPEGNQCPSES
# Source text: Biological activity experiment 4. Allosteric regulation of novel compounds on ATP-sensitive potassium channels in vascular smooth muscles.
# To study the allosteric regulation of compound 1 on ATP-sensitive potassium channels in vascular smooth muscles, the radio-labled-ligand was used in the biological activity experiment 4.
# 1. The allosteric regulation of compound 1 on the binding sites for the selective KATP blocker glibenclamide in vascular smooth muscles was studied as follows: After decapitated, the male Wistar rat (340±20 g) was immediately incised open the thoracic cavity. The aorta was dissected and immersed in the 4° C. buffer containing 10 mM HEPES to wash off the blood, then carefully extirpated the fat, peripheral connective tissues and thrombus. The aorta was cut into about 3-5 mm arterial rings and the vascular endothelium was scraped off with wet tampon. The arterial rings were blotted, weighted and transferred into the tubes containing proper amount of ice colded physiological saline buffer. […] At 5,10,15,20,30,60,90 and 120 min after incubation, 9 mL ice colded Tris buffer (50 mM) was added to terminate the reaction. After washing off the free and bound [^3H]-glibenclamide, the aorta was blotted, transferred to a scintillator, added 50 uL 30% H2O2 and reacted for 2 h at 80° C. After cooling, 2.5 mL ethyl glycol and 5 mL 1% B-BPD xylene were added in sequence, kept stationary for 8 h and measured under a scintillometer for cpm value. The resulting data were fit into a regression line with In[BEQ/(BEQ-Bt)]vs.t and the parameters for association kinetics were obtained. In the disassociation kinetics experiments, the aorta treated as described above and [^3H]-glibenclamide were incubated for 60 min at 25° C., and then 30 uM glibenclamide was added. 0,5,15,30,60,90 and 120 min later, the cpm values for the complex of [^3H]-glibenclamide and KATP were measured. The resulting data were fit into a regression line with In(B/BEQ)]vs.t and the parameters for disassociation kinetics were obtained. 2. The allosteric regulation of compound 1 on the binding sites for the selective KATP activator P1075 in vascular smooth muscles was studied with the method as described above, but some conditions should be changed as follows: the incubation temperature was 37° C. instead of 25° C.;P1075 was used instead of glibenclamide; In the association kinetics experiments, the time points for sampling were 5,10,15,20,30,45,60 and 90 min, while in the disassociation kinetics experiments, that were 1,3,5,10,20,30,45 and 60 min. Biological activity experiment 5. The effects of compound 1 on the specific binding of high selective activator [^3H]P1075 with ATP-sensitive potassium channels in vascular smooth muscles.
# [4] = molecular target: T1, ATP-sensitive potassium channels in vascular smooth muscles; assay: Inhibition of specific binding of [^3H]P1075 in endothelium-removed rat aorta; parameters: species or system Wistar rat; conditions: [^3H] P1075 5 nmol L^−1, 90 minutes at 37° C., endothelium-removed rat aorta
# [5] = A: after administration (30 min after pinacidil, 10 min nifedipine, 15 min compound 1), glibenclamide 20 iv pretreatment
# [6] = B: before administration, glibenclamide 20 iv pretreatment ten minutes
structure (smiles),measurement,setting,value
CC(N/C(=N\C#N)Nc1ccncc1)C(C)(C)C (centres unmarked) [pinacidil],SBP at 1 h after administration,[1]; 1 h,208 ± 5 mmHg
same,heart rates at 1 h,"[1]; 1 h, in bpm (unit assumed)",421 ± 17
same,SBP at 3 h after administration,[1]; 3 h,236 ± 5 mmHg
same,heart rates at 3 h,"[1]; 3 h, in bpm (unit assumed)",400 ± 15
same,SBP at 5 h after administration,[1]; 5 h,241 ± 4 mmHg
same,heart rates at 5 h,"[1]; 5 h, in bpm (unit assumed)",354 ± 14
same,SBP at 9 h after administration,[1]; 9 h,242 ± 5 mmHg
same,heart rates at 9 h,"[1]; 9 h, in bpm (unit assumed)",365 ± 16
same,SBP at 12 h after administration,[1]; 12 h,244 ± 5 mmHg
same,heart rates at 12 h,"[1]; 12 h, in bpm (unit assumed)",352 ± 20
same,SBP at 24 h after administration,[1]; 24 h,244 ± 5 mmHg
same,heart rates at 24 h,"[1]; 24 h, in bpm (unit assumed)",365 ± 15
same,SBP base value,[1]; base value before administration,242 ± 5 mmHg
same,heart rates base value,"[1]; base value before administration, in bpm (unit assumed)",351 ± 19
same,+dp/dtmax,[2]; [5],571 ± 33 kPa/a
same,DBP,[2]; [5],67 ± 6 mmHg
same,HR,[2]; [5],317 ± 25 bpm
same,LVSP,[2]; [5],111 ± 9 mmHg
same,MBP,[2]; [5],76 ± 7 mmHg
same,SB,[2]; [5],91 ± 8 mmHg
same,Vpm,[2]; [5],4.1 ± 0.5 /a
same,−dp/dtmax,[2]; [5],447 ± 73 kPa/a
same,+dp/dtmax,[2]; [6],673 ± 28 kPa/a
same,DBP,[2]; [6],92 ± 5 mmHg
same,HR,[2]; [6],353 ± 17 bpm
same,LVSP,[2]; [6],124 ± 6 mmHg
same,MBP,[2]; [6],104 ± 5 mmHg
same,SB,[2]; [6],128 ± 5 mmHg
same,Vpm,[2]; [6],4.3 ± 0.5 /a
same,−dp/dtmax,[2]; [6],536 ± 42 kPa/a
same,antagonism of the cardiovascular effects by glibenclamide (in words),[2]; glibenclamide 20 mg/kg iv pretreatment,could aslo block
same,Dissociation kinetics k2 of [^3H]glibenclamide binding,"[3]; 25° C., control 0.72 ± 0.11",1.15 ± 0.27 ×10^2 nM^−1 · min^−1
same,Dissociation kinetics Kd of [^3H]glibenclamide binding in presence of the drug,"[3]; Kd of the radioligand, not of the drug, control 0.55 ± 0.14",2.95 ± 0.95 nM
same,Association kinetics k1 of [^3H]glibenclamide binding,"[3]; [^3H]-glibenclamide 3 nM, 25° C., control 1.31 ± 0.14",0.39 ± 0.24 ×10^−2nM^−1 · min^−1
same,Association kinetics kobs of [^3H]glibenclamide binding,"[3]; [^3H]-glibenclamide 3 nM, 25° C., control 4.65 ± 0.37, means ± SD, n = 4~10",2.32 ± 0.67 ×10^−2nM^−1 · min^−1
same,Association kinetics kA of [^3H]glibenclamide binding,"[3]; [^3H]-glibenclamide 3 nM, 25° C., control 181.90 ± 46.90",33.91 ± 22.43 ×10^−2nM^−1 · min^−1
same,IC50,[4],200 ± 43.6 nM
same,Ki,[4]; read-out: pKi for inhibition of specific binding of [^3H]P1075 (converted),200 nM
